# Laboratory results taken from patent publication US20110257107A1, “Compounds for Delivering Amino Acids or Peptides with Antioxidant Activity into Mitochondria” (University of Rochester, priority 2006, published 2011).
# “Also recorded” adds a separate entry of the source. Where two headings read alike, the source gives them in different places.
# Assays:
# spinal cord neurons = test: H202-induced apoptosis (condensed and fragmented nuclei) in cultured spinal cord neurons; format: cell-based
# Method: Central to the therapeutic intervention of spinal cord injury is the belief that spinal cord neurons undergo apoptosis and possibly necrosis under oxidative stress. […] In contrast, control neurons show predominantly diffuse nuclear staining. […] This percentage increased to ˜58% for 500 μM H2O2. […] In contrast, immunoreactivity to cytochrome C oxidase (COX), a marker in the inner mitochondrial membrane remained independent of the mitochondrial insults by H202. The differential staining between cytochrome C and COX affords a secondary method to assess whether a given neuron has undergone mitochondrial permeability transition (MPT).
# [1] = system: cultured neonatal rat ventricular myocytes; test: H202-induced depolarization of mitochondrial membrane potential (TMRE) in cardiac myocytes; format: cell-based; details: 50 μM H202; for onset of H202-induced depolarization and loss of TMRE fluorescence: pretreatment 50 μM or 100 μM for 30 minutes
# Method: TMRE is a lipophilic cation that partitions selectively into the negatively charged mitochondria. Neonatal cultured myocytes (6 days in culture) were loaded with 10 nM TMRE for 60 minutes at 37° C. […] As a control, myocytes were not pretreated with any drug. TMRE was excited at 555 nm and fluorescence emission was detected at 590 nm. Fluorescence images were taken every 2 minutes. At the arrow (FIG. 3), myocytes were subjected to oxidative stress by adding 50 μM H202. Plots were normalized to baseline, and are shown as F/F0, where F is the emitted fluorescence at any given time and F0 is the baseline fluorescence before addition of H202. […] The traces were drawn from the mean values of 7-10 experiments.
# TMRE was used as an indicator of mitochondrial membrane potential. The myocytes were pretreated with 50 μM Mito GSH for 30 minutes and then washed to remove the antioxidant from the solution in which myocytes were suspended. In control, myocytes were not pretreated with any drug. TMRE was excited at 555 run and fluorescence emission was detected at 590 nm. Fluorescence images were taken every 2 minutes to avoid photobleaching and phototoxicity. Myocytes were subjected to oxidative stress by adding 50 μM H202.
# brain striatal neurons = test: NMDA-induced depolarization of mitochondrial membrane (TMRE) in striatal neurons; format: cell-based; details: pretreatment 50 μm for 30 minutes; NMDA (100 μM)
# Method: The effects of mitochondrial-targeted antioxidants upon onset of NMDA (100 μM) induced depolarization of mitochondrial membrane of brain striatal neurons are summarized in Table 1.
# Tetramethylrhodamine methyl ester (TMRE) was used as an indicator of mitochondrial membrane potential. […] Control neurons were not pretreated with any drug.
# Rat heart mitochondria = details: pretreatment 5 mM for 30 minutes, 5 μM rotenone and 100 μM t-BuOOH
# Method: Mitochondrial membrane potential was measured by safranine. Safranine is a positively charged dye that accumulates in mitochondria on establishment of an electrical potential across the mitochondrial inner membrane. However, its fluorescence is quenched by its accumulation in mitochondria in response to mitochondrial membrane potential. Rat heart mitochondria (0.2 mg protein/200 μl) were transferred to a well containing 0.3 ml of 150 mM KCl, 5 mM HEPES, 15, μM safranine, 5 mM succinate buffer, 5 μM rotenone and 100 μM t-BuOOH. The mitochondria were placed in a multiplate reader.
# Fluorescence measurements were made with excitation and emission wavelengths of 485 and 585 nm, respectively.
# rat heart = test: Post-ischemic recovery in Langendorff perfused rat heart; parameters: species or system Sprague-Dawley rat; details: 50 μM for 10 minutes prior to ischemia
# Method: Following an equilibration period of approximately 25 minutes, global normothermic ischemia was imposed for 25 minutes, followed by reperfusion for 30 minutes.
smiles,measurement,setting,value
"C=CC(O)CC(=O)O (centres unmarked) [Compound 3-HP, 3-hydroxy-4-pentenoate]",percentage of cells showing condensed and fragmented nuclei,spinal cord neurons; 3-HP depletion of mitochondrial glutathione prior to 250 μM H202 treatment,70%
"OO [Compound H202, hydrogen peroxide]",neurons with condensed and fragmented nuclei,spinal cord neurons; 250 μM H202,~42%
same,neurons with condensed and fragmented nuclei,spinal cord neurons; 500 μM H2O2,~58%
"N[C@@H](CCC(=O)N[C@@H](CS)C(=O)NCC(=O)O)C(=O)O [Glutathione, L-γ-glutamyl-L-cysteinylglycine, reference compound]",time for onset of H202-induced depolarization,[1]; pretreatment 100 μM non-targeted glutathione,did not significantly increase the time for onset of H202-induced depolarization
"C[N+](C)(C)CCOC(=O)CNC(=O)[C@H](CS)NC(=O)CC[C@H](N)C(=O)O.[Cl-] [Mito GSH, Glutathione choline ester chloride]",time TMRE fluorescence persisted after H202 treatment,[1]; pretreatment 50 μM for 30 minutes,50 min
same,onset of H202-induced depolarization and loss of TMRE fluorescence,[1],delayed onset of H202-induced depolarization and loss of TMRE fluorescence; also recorded: significantly enhanced the time for onset of H202-induced depolarization; also recorded: delay the onset of H202-induced depolarization
same,time for onset of H202-induced depolarization,[1]; pretreatment 100 μM,53 ± 3.6 min
same,Time of Onset of Depolarization,brain striatal neurons,17.5 ± 2.1 min
"CC(=O)N[C@@H](CS)C(=O)OCC[N+](C)(C)C [Mito NAC, N,S-acetyl-L-cysteine choline ester]",onset of H202-induced depolarization and loss of TMRE fluorescence,[1],delayed onset of H202-induced depolarization and loss of fluorescence
same,onset of H202-induced depolarization and loss of TMRE fluorescence,[1]; listed as mito NAC,delay the onset of H202-induced depolarization
same,Time of Onset of Depolarization,brain striatal neurons,20.5 ± 3.6 min
"CC(=O)N[C@@H](CS)C(=O)OCC[N+](C)(C)C [N-acetyl cysteine choline ester, N-acetyl-L-cysteine choline ester]",release of intramitochondrial safranine (depolarization of mitochondrial membrane potential),Rat heart mitochondria; listed as NAC CE,minimize the depolarization of mitochondrial membrane potential
"CC(=O)N[C@@H](CS)C(=O)O [N-acetyl cysteine, N-acetyl-L-cysteine]",onset of ischemic contracture,rat heart,appeared to delay the onset of ischemic contracture
same,Overall recovery of left-ventricular developed pressure,"rat heart; 25 minutes ischemia, 30 minutes reperfusion",15.7%
same,Time of Onset of Depolarization,brain striatal neurons,10.5 ± 1.9 min
"C[N+](C)(C)CCOC(=O)[C@@H](N)CS.[Cl-] [cysteine choline ester, [2-(2-Amino-3-mercapto-L-propionyloxy)ethyl]trimethylammonium chloride]",release of intramitochondrial safranine (depolarization of mitochondrial membrane potential),Rat heart mitochondria,diminished the release of intramitochondrial safaranine
same,release of intramitochondrial safranine (depolarization of mitochondrial membrane potential),Rat heart mitochondria; listed as CYS CE,minimize the depolarization of mitochondrial membrane potential
